{"source": "ChEMBL document CHEMBL1157706", "about": "“Inhibitors of human tyrosyl-DNA phospodiesterase (hTdp1) developed by virtual screening using ligand-based pharmacophores” (Bioorg Med Chem, 2010)", "key": {"[1]": {"target": "T1, Tyrosyl-DNA phosphodiesterase 1 (Homo sapiens, UniProt Q9NUW8)", "T1 sequence (Q9NUW8 whole entry)": "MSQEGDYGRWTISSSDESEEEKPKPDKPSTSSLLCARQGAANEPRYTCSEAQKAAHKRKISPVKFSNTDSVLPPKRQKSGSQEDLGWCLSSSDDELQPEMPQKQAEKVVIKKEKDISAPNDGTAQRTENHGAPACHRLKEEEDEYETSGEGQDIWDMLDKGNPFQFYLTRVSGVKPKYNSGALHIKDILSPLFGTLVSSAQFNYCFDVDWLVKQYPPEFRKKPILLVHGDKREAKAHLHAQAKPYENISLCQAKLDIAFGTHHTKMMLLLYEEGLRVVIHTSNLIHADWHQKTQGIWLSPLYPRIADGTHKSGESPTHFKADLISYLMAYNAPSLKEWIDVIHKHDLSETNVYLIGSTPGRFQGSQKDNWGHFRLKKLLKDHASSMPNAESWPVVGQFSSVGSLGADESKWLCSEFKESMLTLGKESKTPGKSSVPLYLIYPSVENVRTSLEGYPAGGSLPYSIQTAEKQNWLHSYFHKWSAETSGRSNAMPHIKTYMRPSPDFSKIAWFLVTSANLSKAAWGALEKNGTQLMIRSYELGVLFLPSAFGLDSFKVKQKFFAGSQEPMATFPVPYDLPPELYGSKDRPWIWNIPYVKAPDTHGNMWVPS", "test": "Inhibition of human tyrosyl-DNA phosphodiesterase 1 after 30 mins by alpha high throughput screening assay in presence of 0.01% Tween-20"}, "[2]": {"target": "T1, Tyrosyl-DNA phosphodiesterase 1", "test": "Inhibition of human tyrosyl-DNA phosphodiesterase 1 after 30 mins by alpha high throughput screening assay in presence of 0.05% Tween-20"}, "[3]": {"target": "T1, Tyrosyl-DNA phosphodiesterase 1", "test": "Inhibition of human tyrosyl-DNA phosphodiesterase 1 after 30 mins by alpha high throughput screening assay"}}, "data": [{"smiles": "CCOC(=O)CN(C(=O)COC(=O)Cc1c[nH]c2ccccc12)c1ccc(F)cc1", "values": [{"measurement": "IC50", "setting": "[1]", "result": 7.94, "unit": "µM"}, {"measurement": "IC50", "setting": "[2]", "result": 11.2, "unit": "µM"}]}, {"smiles": "O=C(/C=C/c1ccc(C(F)(F)F)cc1)OC(C(=O)NC1CC1)c1ccccc1", "note": "(stereo not drawn)", "values": [{"measurement": "IC50", "setting": "[1]", "result": 31.6, "unit": "µM"}, {"measurement": "IC50", "setting": "[2]", "result": 44.7, "unit": "µM"}]}, {"smiles": "O=C(OCc1cn2ccccc2n1)c1c2c(nc3ccccc13)CCC2", "values": [{"measurement": "IC50", "setting": "[1]", "result": 35.5, "unit": "µM"}, {"measurement": "IC50", "setting": "[2]", "result": 50.1, "unit": "µM"}]}, {"smiles": "Fc1cccc(Cl)c1/C=N/N=C1c2ccccc2-c2ccccc21", "values": [{"measurement": "IC50", "setting": "[3]", "result": 14, "unit": "µM"}]}, {"smiles": "COC(=O)c1ccc(COc2ccc(C3Nc4ccccc4C(=O)N3C3CC3)cc2OC)cc1", "note": "(stereo not drawn)", "values": [{"measurement": "IC50", "setting": "[1]", "result": 44.7, "unit": "µM"}, {"measurement": "IC50", "setting": "[2]", "result": 89.1, "unit": "µM"}]}, {"smiles": "CCOc1cccc2cc(C(=O)OCC(=O)c3c[nH]c4ccccc34)c(=O)oc12", "values": [{"measurement": "IC50", "setting": "[1]", "result": 14.1, "unit": "µM"}, {"measurement": "IC50", "setting": "[2]", "result": 22.4, "unit": "µM"}]}, {"smiles": "COc1cc(/C=C/C(=O)OC(C(=O)N2CCCCC2)c2ccccc2)ccc1O", "note": "(stereo not drawn)", "values": [{"measurement": "IC50", "setting": "[1]", "result": 79.4, "unit": "µM"}, {"measurement": "IC50", "setting": "[2]", "result": 70.8, "unit": "µM"}]}, {"smiles": "Cc1cc(C)nc(N/C=C(\\C#N)C(=O)c2cccc(CSc3ccccc3)c2)n1", "values": [{"measurement": "IC50", "setting": "[1]", "result": 100, "unit": "µM"}, {"measurement": "IC50", "setting": "[2]", "result": 79.4, "unit": "µM"}]}, {"smiles": "CCOC(=O)c1sc(N2C(=O)c3oc4ccc(F)cc4c(=O)c3C2c2ccc(C)cc2)nc1C", "note": "(stereo not drawn)", "values": [{"measurement": "IC50", "setting": "[1]", "result": 44.7, "unit": "µM"}, {"measurement": "IC50", "setting": "[2]", "result": 50.1, "unit": "µM"}]}, {"smiles": "O=c1c2ccccc2c2ccccc2c(=O)n1-c1cccc2c1ccc1c3ccccc3ccc21", "values": [{"measurement": "IC50", "setting": "[3]", "result": 5, "unit": "µM"}]}]}
